Assay results taken from patent US7067506B2, “Compounds useful for inhibiting Chk1” (ICOS Corporation, priority 2001, dated 2006).

How the values were obtained:
[1] = system: Colo205 and HT29 xenograft tumors; assay: Colon tumor xenograft model; type: in vivo, Balb/c (nu/nu) mice; conditions: i.p. 50, 100 or 150 mg/kg; tumor weight by calipers
Experimental: To test the ability of the Chk1 inhibitors to enhance the killing of tumors by 5-FU in mice, xenograft tumor models using colon tumor cell lines were established. Colo205 and HT29 cells (human colon carcinoma) were used to propagate xenograft tumors in 6-8 week old female […] Balb/c (nu/nu) mice. Mice were maintained in a laminar airflow cabinet under pathogen-free conditions and fed sterile food and water ad libitum. Cell lines were grown to subconfluence in RPMI 1640 media supplemented with 10% FBS, 100 U/mL penicillin, 100 μg/mL streptomycin, and 1.5 mM L-glutamine in a 5% CO2 humidified environment. Single cell suspensions were prepared in CMF-PBS, and cell concentration adjusted to 1×10^8 cells/mL. Mice were inoculated subcutaneously (s.c). on the right flank or right leg with a total of 1×10^7 cells (100 μL).
Mice were randomized (5 mice/group) into four treatment groups and used when tumors reached a weight of 75-100 mg (usually 7-11 days post-inoculation). Tumors were measured with vernier calipers and tumor weights were estimated using the empirically derived formula: tumor weight (mg)=tumor length (mm)×tumor width (mm)^2/3.3. Treatment consisted of i) 100 μL intraperitoneal (i.p). injection of 5-FU at 50 mg/kg, 100 mg/kg, or 150 mg/kg. […] Tumor size was monitored every other day for the duration of the experiment.

human tumor cell lines = assay: Enhancement of cell killing by chemotherapeutic drugs (3H-thymidine uptake); type: cell-based
Experimental: To test the hypothesis that inhibition of Chk1 potentiates the killing effect of DNA-damaging agents, cells were incubated in the presence of selective Chk1 inhibitors and either irradiation or chemical DNA-damaging agents. Cells plated at a density of 1000-2000 per well in 96-well microtitre plates were grown in RMPI 1640 containing 10% FBS, 100 U/mL penicillin and 100 μg/mL streptomycin for 18 hours at 37° C. in a humidified incubator with 5% CO2. Cells tested included HeLa, ACHN, 786-0, HCT116, SW620, HT29, Colo205, SK-MEL-5, SK-MEL-28, A549, H322, OVCAR-3, SK-OV-3, MDA-MB-231, MCF-7, PC-3, HL-60, K562, and MOLT4. All cell line designations refer to human cell lines and refer to the following:
Cells were treated with media containing chemotherapeutic drugs alone or chemotherapeutic drugs and Compounds 12 and 29. Cells were incubated for approximately 5 days before growth was measured by determination of levels of ^3H-thymidine uptake. Chemotherapeutic drugs included etoposide, doxorubicin, cisplatin, chlorambucil, 5-fluorouracil (5-FU). The drug concentration necessary to inhibit cell growth to 90% of untreated control cells was defined as the GL90. At concentrations less than 100 μM, Compounds 12 and 29 enhanced the killing of 5-FU from 2- to 10-fold.
Compounds 2 and 12 were tested with additional antimetabolites, including methotrexate, hydroxyurea, 2-chloroadenosine, fludarabine, azacytidine, and gemcitibine for an ability to enhance killing of the agents.

## COc1cc(CN(C)Cc2ccccc2)ccc1NC(=O)Nc1cnc(C)cn1 [Compound 340, 1-{4-[(Benzyl-methyl-amino)-methyl]-2-methoxy-phenyl}-3-(5-methyl-pyrazin-2-yl)-urea]
other
  melting point: 142 to 143 °C

## O=c1[nH]cc(F)c(=O)[nH]1 [Compound 5-FU, 5-fluorouracil]
[1]
  tumor growth: dose-dependent delay in tumor growth

## COc1cc(NC(=O)CCNC2CCCC2)ccc1NC(=O)Nc1cnccn1 [Compound 2, 3-cyclopentylamino-N-[3-methoxy-4-(3-pyrazin-2-yl-ureido)phenyl]-propionamide]
Human tumor cell lines; combination with 5-azacytidine
  enhancement of killing of cells to 5-azacytidine: enhance the killing of cells
Human tumor cell lines; combination with fludarabine
  enhancement of killing of cells to fludarabine: enhance the killing of cells
Human tumor cell lines; combination with hydroxyurea
  enhancement of killing of cells to hydroxyurea: enhance the killing of cells
Human tumor cell lines; combination with methotrexate
  enhancement of killing of cells to methotrexate: enhance the killing of cells

## COc1cc(CN)ccc1NC(=O)Nc1cnc(C)cn1 [Compound 342, 1-(4-Aminomethyl-2-methoxy-phenyl)-3-(5-methyl-pyrazin-2-yl)-urea]
other
  melting point: 168 to 169 °C
